Source: PubChem BioAssay AID179 (DTP/NCI, 2004)
Values joined by “and” are separate entries in the source; they are usually repeats but may differ in a detail not shown here. Identical values can stand only once. Active and inactive are the calls of the source.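 The calls were made as follows: active = compounds giving half or more protection of infected cells from virus-caused growth loss, again on retest; inactive = the rest.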 Where a SMILES comes first, the peptide text is derived from it. The star is where a group is joined. Fmoc = O=C(OCC1c2ccccc2-c2ccccc21)*; Boc = CC(C)(C)OC(=O)*; OtBu = CC(C)(C)O*

Test system: CEM cells HIV-1 protection, formazan growth assay
Assay: NCI AIDS Antiviral Assay
Details: for IC50: measured here: growth of uninfected CEM cells
Method in brief: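 Steps: treat uninfected and HIV-1-infected human CEM cells at five drug levels; quantify growth by soluble formazan; retest any compound reaching 50% protection; classify actives from the retest.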

Row | SMILES | EC50 | IC50 | outcome
1 | COC12COC(=O)C1C(c1ccc3c(c1)OCO3)c1cc3c(cc1O2)OCO3 (centres undefined) | > 200 µM | 9.12 µM | –
2 | [N-]=[N+]=NC1(Cc2ccccc2)C(=O)c2cccc3c2N(CCC3)C1=O (centres undefined) | – | – | inactive
3 | CCCCC[C@@H]1CC=CC(NC(=O)OCc2ccccc2)C1/C=C/C(=O)OCCCC1OCCO1 (some centres undefined) | – | – | inactive
4 | CC(=O)OCC(OC(C)=O)C(OC(C)=O)C(OC(C)=O)C(=O)CNn1c(-c2ccccc2Cl)nc2ccc(Br)cc2c1=O (centres undefined) | – | – | inactive
5 | COC(=O)/C(C#N)=C(\Nc1ccccc1)N1CCCCC1 | > 200 µM | 97.7 µM | –
6 | O=C(O)CN(CC(=O)O)C(C(=O)O)c1ccccc1 (centres undefined) | > 200 µM | > 200 µM | –
7 | CC(C)(C)OC(=O)CCC(NC(=O)OCC1c2ccccc2-c2ccccc21)C(=O)NC(Cc1c[nH]c2ccccc12)C(=O)NC(CCCCNC(=O)OC(C)(C)C)C(=O)N1CCCC1C(=O)NCC(N)=O (centres undefined) (Fmoc-E(OtBu)WK(Boc)PG-NH2; configuration not given here) | > 100 µM | > 100 µM and 44.7 µM | –
8 | CC(C)(C)C1CCC2c3c([nH]c4ccccc34)C3C(=O)N(c4ccc(C#N)cc4)C(=O)C3C2C1 (centres undefined) | > 200 µM | 10 µM | –
9 | COC12C(COC(N)=O)C3=C(C(=O)C(C)=C(N4CCN(C)CC4)C3=O)N1CC1NC12 (centres undefined) | > 200 µM | 110 µM | –
10 | COc1ccc(/C=C/C(=O)OC/C=C/c2ccc3c(c2)OCO3)cc1OC | > 200 µM | 102 µM | –
11 | CCCC(=O)OC1C(C2COC(C)(C)O2)OC2OC(C)(C)OC21 (centres undefined) | – | – | inactive
12 | COc1ccc(-c2cc(-c3ccccc3)n(C3OCC(OC(C)=O)C(OC(C)=O)C3OC(C)=O)c(=S)c2C#N)cc1 (centres undefined) | > 200 µM | 43.7 µM | –
13 | COC(=O)c1nn2ccc3ccccc3c2c1C(=O)OC | > 200 µM | 93.3 µM | –
14 | CCC/C(Cl)=N/OC(=O)Nc1cc(C(F)(F)F)ccc1OC | > 200 µM | 3.39 µM | –
15 | O=c1cc[nH]cc1-c1c[nH]ccc1=O | – | – | inactive
16 | O=C(c1ccco1)N1CCCN(C(=O)c2ccco2)C1=S | > 200 µM | 28.2 µM | –
17 | C/C=C1\CC(C(=O)OCC)CCCCCCC1=O (centres undefined) | > 200 µM | 17.4 µM | –
18 | O=C1/C(=C/c2ccc(Cl)cc2)COc2ccc(Br)cc21 | > 14.8 µM | > 14.8 µM | –
19 | CC(C#N)NCc1ccccc1 (centres undefined) | – | – | inactive
20 | O=c1c2ccccc2[nH]c2c(Cl)cc(Cl)c(N3CCCCC3)c12 | > 200 µM | 12.9 µM | –
21 | O[C@@H]1CCN(Cc2ccccc2)C[C@@H]1CNC12CC3CC(CC(C3)C1)C2 | > 72.4 µM | > 72.4 µM | –
22 | C(/C=N/NC1=NCCCN1)=N\NC1=NCCCN1 | 162 µM | > 200 µM | –

Row | SMILES | EC50 | IC50 | outcome
23 | O=C(c1ccc(Cl)cc1)c1ccc(OCCCOc2ccc(C(=O)c3ccc(Cl)cc3)cc2Cl)c(Cl)c1 | > 4.79 µM | > 4.79 µM | –
24 | CC[n+]1c([S-])nn(C)c1-c1cnccn1 | > 200 µM | > 200 µM | –
25 | CCOC(=O)/C(O)=C/c1cc(=O)n(C)c2ccccc12 | > 200 µM | > 200 µM | –
26 | CCOC(=O)C1C(=O)c2ccccc2CN1Cc1ccccc1 (centres undefined) | – | – | inactive
27 | CCN(CC)CCOc1ccc2c(c1O)C(=O)c1ccccc1C2=O | > 74.1 µM | 3.98 µM | –
28 | O=C(NC(=O)c1cn(CCN2CCNCC2)c(=O)[nH]c1=O)OCc1ccccc1 | – | – | inactive
29 | c1ccc([C@H]2CN3CCSC3=N2)cc1 | > 200 µM | > 200 µM | –
30 | CCOC(=O)CNC(=O)c1[nH]cnc1/N=N/N(C)C | – | 933 µM | inactive
31 | Cc1ccc(N2C3=C(CC4=C2CC(C)(C)CC4=O)C(=O)CC(C)(C)C3)cc1 | > 100 µM | > 100 µM | –
32 | NC1CC(=O)c2c1sc(Cl)c2Cl (centres undefined) | – | – | inactive
33 | CC(=O)OC12c3ccccc3-c3ccccc3C1C1C(=O)N(C)C(=O)C12Cl (centres undefined) | > 67.6 µM | > 67.6 µM | –
34 | CCOC(=O)N1CCc2cc(OC)c(OC)cc2/C1=C/c1ccc(OC)c(OC)c1 | – | – | inactive
35 | CC(=O)NNC(=S)/N=C/C(C(=O)Nc1ccc([N+](=O)[O-])cc1)=C(\C)O | 117 µM | 170 µM | –
36 | O=C1OCCOCCOCCOCCOC(=O)c2cccc1c2 | > 155 µM | > 155 µM | –
37 | Cc1ccnc2c1ccc1nc3ccccc3n12 | > 200 µM | > 200 µM | –
38 | O=C(O)c1c[nH]c2cc(O)ccc2c1=O | > 200 µM | > 200 µM | –
39 | N#Cc1c(O)cc(=O)n2c1[nH]c1ccccc12 | > 200 µM | 174 µM | –
40 | COc1ccccc1NS(=O)(=O)c1ccc2ncn(NS(=O)(=O)c3ccc(Cl)cc3)c(=O)c2c1 | – | – | inactive
41 | CC(C)CCC[C@@H](C)C1CCC2[C@@H]3CCC4C[C@@H](CC/C=C/CC[C@H]5CC[C@@]6(C)C(CC[C@@H]7C6CC[C@@]6(C)C7CCC6[C@H](C)CCCC(C)C)C5)CC[C@]4(C)C3CC[C@@]21C (some centres undefined) | > 9.55 µM | > 9.55 µM | –
42 | CCN(CC)CCC1CCCCN1CC(=O)N1c2cc(Cl)ccc2NC(=O)CC1C (centres undefined) | > 200 µM | > 200 µM | –
43 | CC(=O)N1CC(O)(c2ccccc2)CSc2ccccc21 (centres undefined) | > 107 µM | > 107 µM | –
44 | COc1cccc2ccc3c(c12)C(=O)OC31CCc2c(C)cccc21 (centres undefined) | – | – | inactive

Row | SMILES | EC50 | IC50 | outcome
45 | Cc1[nH]c(=O)nc(NCCNCCO)c1C(=O)Nc1cccc2cc3ccccc3cc12 | > 200 µM | > 200 µM | –
46 | CC1(C)OC2OC(C(O)CO)C(OC(=S)SSC(=S)OC3C(C(O)CO)OC4OC(C)(C)OC43)C2O1 (centres undefined) | > 200 µM | 36.3 µM | –
47 | CCOC(=O)CP(=S)(S)c1ccccc1 (centres undefined) | > 5500 µM | > 5500 µM | –
48 | COCn1cnc2c(=O)n(-c3ccc(OC)cc3)c(=S)n(-c3ccc(OC)cc3)c21 | > 200 µM | > 200 µM | –
49 | CC(NC(=O)c1ccccc1SC(=O)CCC[n+]1ccccc1)C(N)=O (centres undefined) | 2.24 µM | 19.1 µM | –
50 | Cc1ccc(Oc2ccc(C)cc2[N+](=O)[O-])cc1 | – | – | inactive
51 | CC(NC(=O)/C(=C/c1ccccc1)NC(=O)c1ccccc1)C(=O)O (centres undefined) | > 200 µM | > 200 µM | –
52 | CC(=O)C1C(=O)C(=O)N(c2ccccc2)C1=O (centres undefined) | > 200 µM | > 200 µM | –
53 | CCCCCCCCCCCCCCCCCCOCC(CO[P+](=O)O)OCCCCCCCCCCCCCCCCCC (centres undefined) | > 50.1 µM | > 50.1 µM | –
54 | CC/C(Cl)=N\OC(=O)Nc1ccc(OC)cc1 | > 20 µM | 6.76 µM | –
55 | CC1C(O)=C(O)c2ccccc2N1O (centres undefined) | > 490 µM | 87.1 µM | –
56 | O=C(/C=C/CC(O)(c1ccccc1)c1ccccc1)Nc1ccccc1Cl | > 19.1 µM | > 19.1 µM | –
57 | CCCCCCCCCCC#CCC(=O)SCCNC(=O)CCNC(=O)[C@@H](O)C(C)(C)COP(=O)(O)OP(=O)(O)OCC1OC(n2cnc3c(N)ncnc32)C(O)C1OP(=O)(O)O (some centres undefined) | – | – | inactive
58 | CC(C#N)(c1ccccc1)N(CCc1ccccc1)C(=O)Oc1ccccc1 (centres undefined) | > 200 µM | > 200 µM | –
59 | CC[n+]1c(/C=C/c2ccc(N(CCCl)CCCl)cc2)ccc2cc(Br)ccc21 | – | – | inactive
60 | CCOC(=O)N1CCN(c2ccc3ccc(N)nc3n2)CC1 | > 200 µM | 148 µM | –
61 | CC(=O)OC1C(COS(=O)(=O)O)OC(O[C@H]2CC[C@@]3(C)C(=CC[C@@H]4C3CC[C@@]3(C)C4CC[C@@H]3C(C)=O)C2)C(OC(C)=O)C1OC(C)=O (some centres undefined) | > 31.6 µM | > 31.6 µM | –
62 | c1cc2cc3c(cc2o1)OC[C@H]1c2cc4c(cc2O[C@@H]31)OCO4 | > 43.7 µM | 10.5 µM | –
63 | Cc1nc2cccc(F)c2c(=O)n1-c1nnc(C2CC2)s1 | > 200 µM | > 200 µM | –
64 | CC1=CC(S)NC(=S)N1 (centres undefined) | > 200 µM | > 200 µM | –
65 | NC(=O)Cc1nc2c(N)ncnc2n1C1OC(CO)C(O)C1O (centres undefined) | > 200 µM | > 200 µM | –
66 | C=C(CC/C=C\CO)[Si](C)(C)C | > 141 µM | > 141 µM | –

Row | SMILES | EC50 | IC50 | outcome
67 | Nc1ccc(-c2cc3ccccc3[nH]2)cc1 | > 148 µM | 117 µM | –
68 | Cc1cc2c(cc1C)NC(C)CC(=O)N2 (centres undefined) | > 200 µM | > 200 µM | –
69 | CCC(CC)n1cc(C(=O)NC(=O)NCCCCCOC(=O)CCCCCCCCCCC(=O)OCCCCCNC(=O)NC(=O)c2cn(C(CC)CC)c(=O)[nH]c2=O)c(=O)[nH]c1=O | > 20.9 µM | > 20.9 µM | –
70 | CN(C)Cc1cc(N=Nc2ccc(Cl)cc2)ccc1O | > 20 µM | 13.5 µM | –
71 | O=[N+]([O-])c1cccc([N+](=O)[O-])c1Cl | > 200 µM | 16.6 µM | –
72 | CCCC(C)(O)CCC(O)(CCC)CCC (centres undefined) | > 200 µM | > 200 µM | –
73 | CCC(=O)C(C)C(=O)C(=O)C(=O)OC (centres undefined) | > 13.5 µM | > 13.5 µM | –
74 | N#CCC(=O)N/N=C(/C(=O)Nc1ccccc1)C1C(=O)N(c2ccccc2)N=C1N (centres undefined) | > 170 µM | > 170 µM | –
75 | CC1CC(=O)NC2CC1C2(C)C (centres undefined) | > 1480 µM | > 1480 µM | –
76 | N#C/C(=C\c1cc(Br)c(O)c(Br)c1)c1cccnc1 | > 100 µM | 44.7 µM | –
77 | CN(C)C12CCCCCCC1S(=O)(=O)C2 (centres undefined) | > 363 µM | 302 µM | –
78 | CCOC(=O)C1=C(N)Oc2cc(O)cc(O)c2C1c1ccccc1 (centres undefined) | – | – | inactive
79 | CNS(=O)(=O)NNS(=O)(=O)c1ccc(OC)cc1 | > 617 µM | 324 µM | –
80 | CC(=O)C(N=Nc1ccc(S(=O)(=O)Nc2onc(C)c2C)cc1)C(=O)Nc1cc(C)cc(C)c1 (centres undefined) | > 200 µM | 30.2 µM | –
81 | CCOC(=O)CCC(NC(=O)N1CCN(c2c(C)nc(C)[nH]c2=O)CC1)C(=O)OCC (centres undefined) | > 200 µM | > 200 µM | –
82 | CC1(C)OC(=O)c2cc(C(=CCCBr)c3cc(Cl)c4c(c3)C(=O)OC(C)(C)O4)cc(Cl)c2O1 | > 100 µM | 41.7 µM | –
83 | COC1C=CC23c4cc5c(cc4COC2(O)CN(C)C3C1)OCO5 (centres undefined) | > 550 µM | > 550 µM | –
84 | CSC1=N/C(=C\c2cccs2)C(=O)N1CN1CCOCC1 | > 200 µM | 38 µM | –
85 | CC1(C)N=C(C(N)=O)c2[nH]cnc2N1 | > 200 µM | > 200 µM | –
86 | O=S(=O)(c1ccccc1)N1C2CCCC21 (centres undefined) | – | – | inactive
87 | COc1ccc(OC)c(-n2nnc3ccccc3c2=O)c1 | > 302 µM | 174 µM | –
88 | Cn1c2c(c3ccccc31)CCN(CCCN1CCN(c3ccccc3)CC1)C2=O | > 55 µM | 44.7 µM | –
